According to ChEMBL document CHEMBL3352768, “Synthesis and PGE₂ production inhibition of s-triazine derivatives as a novel scaffold in RAW 264.7 macrophage cells” (Bioorg Med Chem Lett, 2014):

What was measured:
RAW264.7 [1] = test: Inhibition of PGE2 production in LPS-induced mouse RAW264.7 cells at 1 uM; assay type: functional
RAW264.7 [2] = test: Cytotoxicity against mouse RAW264.7 cells assessed as reduction in cell viability by MTT assay; assay type: cell-based
[3] = target: T1, Prostaglandin G/H synthase 2 (Homo sapiens, UniProt P35354); test: Inhibition of human recombinant COX2 in cell-free system by enzyme immunoassay
T1 sequence (P35354 whole entry): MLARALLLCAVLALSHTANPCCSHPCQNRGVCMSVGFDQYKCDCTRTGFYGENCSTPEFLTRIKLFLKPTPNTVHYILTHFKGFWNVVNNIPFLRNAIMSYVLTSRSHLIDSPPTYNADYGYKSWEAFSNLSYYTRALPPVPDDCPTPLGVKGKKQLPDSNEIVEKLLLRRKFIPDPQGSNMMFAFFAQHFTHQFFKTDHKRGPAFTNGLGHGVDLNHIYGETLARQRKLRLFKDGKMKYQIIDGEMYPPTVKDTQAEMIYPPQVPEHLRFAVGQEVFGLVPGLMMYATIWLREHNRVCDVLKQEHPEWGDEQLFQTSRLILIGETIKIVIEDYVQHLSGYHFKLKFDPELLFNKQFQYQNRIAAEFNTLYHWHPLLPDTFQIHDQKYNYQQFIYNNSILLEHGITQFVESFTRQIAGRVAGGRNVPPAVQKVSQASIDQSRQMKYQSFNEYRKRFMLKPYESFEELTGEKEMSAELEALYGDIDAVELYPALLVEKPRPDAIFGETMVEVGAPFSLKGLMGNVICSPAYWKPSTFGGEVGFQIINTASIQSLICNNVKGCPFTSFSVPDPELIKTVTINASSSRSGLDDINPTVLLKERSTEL

RAW264.7 [4] = test: Inhibition of PGE2 production in LPS-induced mouse RAW264.7 cells at 10 uM; assay type: functional
RAW264.7 [5] = test: Inhibition of PGE2 production in LPS-induced mouse RAW264.7 cells; assay type: functional, cell-based
[6] = target: T2, Prostaglandin G/H synthase 2 (Homo sapiens) (UniProt P35354); test: Inhibition of human recombinant COX2 in cell-free system at 10 uM by enzyme immunoassay
T2 sequence (whole entry): T1 sequence (P35354 whole entry)

RAW264.7 [7] = test: Inhibition of PGE2 production in LPS-induced mouse RAW264.7 cells at 3 uM; assay type: functional

Row | SMILES | Activity (RAW264.7 [2]) [µM] | inhibition at 10 µM (RAW264.7 [4]) [%] | further results
1 | Cc1nc(Nc2ccc(C(C)C)cc2)nc(SC(C(N)=O)c2ccccc2)n1 (stereo not given) | < 10 |  | inhibition at 1 µM (RAW264.7 [1]): 26.5%
2 | CC(C)c1ccc2c(c1)c(SC(C)(C)C)c(CC(C)(C)C(=O)O)n2Cc1ccc(Cl)cc1 |  |  | IC50 [3]: 58 µM
3 | COC(=O)C(Sc1nc(C)nc(Nc2ccc(C(C)C)cc2)n1)c1ccccc1 (stereo not given) | > 10 | 85.7 | 
4 | CCOC(=O)C(Sc1nc(Cl)nc(Nc2ccc(C3CCCCC3)cc2)n1)c1cccc2ccccc12 (stereo not given) | > 10 | 43.7 | 
5 | COC(=O)C(Sc1nc(Cl)nc(Nc2ccc(Cc3ccccc3)cc2)n1)c1ccccc1 (stereo not given) | > 10 | 90.8 | IC50 (RAW264.7 [5]): 5.52 µM; inhibition [6]: 0%
6 | CCOC(=O)C(Sc1nc(Cl)nc(Nc2ccc(Cc3ccccc3)cc2)n1)c1cccc2ccccc12 (stereo not given) | > 10 | 72.6 | 
7 | COC(=O)C(Sc1nc(Cl)nc(Nc2ccc(Oc3ccccc3)cc2)n1)c1ccccc1 (stereo not given) | > 10 | 85.8 | 
8 | COC(=O)C(Sc1nc(Cl)nc(Nc2ccc(-c3ccccc3)cc2)n1)c1ccccc1 (stereo not given) | > 10 | 82.7 | 
9 | CS(=O)(=O)Nc1ccc([N+](=O)[O-])cc1OC1CCCCC1 [NS-398] |  |  | inhibition at 3 µM (RAW264.7 [7]): 99.4%
10 | COC(=O)C(Sc1nc(Cl)nc(Nc2ccc(C(C)C)cc2)n1)c1ccccc1 (stereo not given) | > 10 | 91.8 | IC50 (RAW264.7 [5]): 5.76 µM; inhibition [6]: 31.8%
11 | COC(=O)C(Sc1nc(Cl)nc(Nc2ccc(C(C)C)cc2)n1)c1cccc2ccccc12 (stereo not given) | > 10 | 88.7 | 
12 | O=C(O)C(Sc1nc(Cl)nc(Nc2ccc(-c3ccccc3)cc2)n1)c1cccc2ccccc12 (stereo not given) | > 10 | 7.77 | 
13 | CCOC(=O)C(Sc1nc(Cl)nc(Nc2ccc(-c3ccccc3)cc2)n1)c1cccc2ccccc12 (stereo not given) | > 10 | 78.6 | 
14 | COC(=O)C(Sc1nc(Cl)nc(Nc2ccc(Oc3ccccc3)cc2)n1)c1cccc2ccccc12 (stereo not given) | > 10 | 72.5 | 
